Reference: the NIST ThermoML archive (doi:10.1021/je201277d)

Key:
[1] = refractive index (other wavelength) (dimensionless); details: 298.15 K, 101.3 kPa, Liquid
[2] = refractive index (other wavelength) (dimensionless); wn = mass fraction of the nth substance listed; details: 298.15 K, 101.3 kPa, Liquid

C1CCCCC1 [cyclohexane]
[1]
Details | refractive index
Wavelength=670 nm | 1.42253
Wavelength=925 nm | 1.41832

C1CCCCC1 [cyclohexane] + CO
refractive index, [2]
Details | w1 = 0.1 | w1 = 0.2004 | w1 = 0.2999
Wavelength=670 nm | 1.33196 | 1.34128 | 1.34987
Wavelength=925 nm | 1.32811 | 1.33737 | 1.34602

C1CCCCC1 [cyclohexane] + Cc1ccccc1
refractive index, [2]
Details | w1 = 0.0996 | w1 = 0.2002 | w1 = 0.2995 | w1 = 0.4003 | w1 = 0.5004 | w1 = 0.6002 | w1 = 0.7 | w1 = 0.8005 | w1 = 0.9001
Wavelength=670 nm | 1.48158 | 1.47363 | 1.46616 | 1.45883 | 1.45162 | 1.44527 | 1.43903 | 1.43327 | 1.42768
Wavelength=925 nm | 1.47383 | 1.46618 | 1.4592 | 1.45229 | 1.44539 | 1.43956 | 1.43363 | 1.42825 | 1.42296

CO [methanol]
[1]
Details | refractive index
Wavelength=670 nm | 1.32603
Wavelength=925 nm | 1.32235

Cc1ccccc1 [toluene]
[1]
Details | refractive index
Wavelength=670 nm | 1.48998
Wavelength=925 nm | 1.48176

Cc1ccccc1 [toluene] + CO
refractive index, [2]
Details | w1 = 0.1001 | w1 = 0.1994 | w1 = 0.3001 | w1 = 0.4 | w1 = 0.4996 | w1 = 0.6 | w1 = 0.6994 | w1 = 0.8001 | w1 = 0.8994
Wavelength=670 nm | 1.34089 | 1.35612 | 1.37219 | 1.38826 | 1.4056 | 1.42196 | 1.43865 | 1.45699 | 1.47418
Wavelength=925 nm | 1.33686 | 1.35152 | 1.36718 | 1.38279 | 1.39956 | 1.41564 | 1.43182 | 1.44951 | 1.46633
